Paper PMC5555576, “Selective small-chemical inhibitors of protein arginine methyltransferase 5 with anti-lung cancer activity” (PLoS ONE, 2017)
Several values for one entry are separate records, joined by “and”; a condition that tells them apart may be missing. Identical values can stand only once.

Tested on: PRMT5-target genes in A549 cells
Assay: Real-time PCR of PRMT5-regulated genes
Format: cell-based
Conditions: 50 μM, 24 hrs
Method: We identified a set of genes whose expression was altered by silencing PRMT5 expression in lung cancer A549 cells. A549 cells were treated with C9a and EPZ015666 and expression of 6 identified PRMT5-regulated genes was analyzed. […] The future study would use genome-wide approach to determine genes whose expression is affected by PRMT5 inhibitors.
Supplementary file pone.0181601.s005.tif: S5 Fig PRMT5 inhibitors selectively affect PRMT5-target genes in lung cancer cells. RNAs were isolated from cells cultured in the presence of DMSO, EPZ015666 (Sigma-Aldrich) (50 μM), or C9a (50 μM) for 24 hrs and submitted to RT-RCR analysis of gene expression in cancer cell lines. Relative mRNA levels = mRNA in cells treated with PRMT5-inhibtor/mRNA in DMSo-treated cells. (TIF) Click here for additional data file.

[1] = single replicate, vs control, actin-normalised

## Nc1cccc(Nc2ncnc3c2cnn3Cc2ccccc2)c1 [Compound C9a]
average
  EXPRESSION FOLD CHANGE avg BTG2: 1.857
  EXPRESSION FOLD CHANGE avg FGFR1: 0.9076
  EXPRESSION FOLD CHANGE avg FOXO3: 1.441
  EXPRESSION FOLD CHANGE avg GLIPR1: 6.032
  EXPRESSION FOLD CHANGE avg PTTG1: 1.0371
  EXPRESSION FOLD CHANGE avg TIGAR: 1.502
[1]
  EXPRESSION FOLD CHANGE BTG2: 1.889 and 1.826 and 0.7777
  EXPRESSION FOLD CHANGE FGFR1: 0.9289 and 0.7185 and 1.075
  EXPRESSION FOLD CHANGE FOXO3: 1.695 and 1.429 and 1.452
  EXPRESSION FOLD CHANGE GLIPR1: 5.777 and 6.772 and 5.548
  EXPRESSION FOLD CHANGE PTTG1: 0.9706 and 1.104 and 1.215
  EXPRESSION FOLD CHANGE TIGAR: 1.627 and 1.032 and 1.378
